Experimental data published in patent US11986532B2 (Arvinas Operations, Inc., priority 2021, dated 2024).
Like-named read-outs stand apart in the source and are kept apart here.

Target: T1, BCL6 (Homo sapiens, UniProt P41182)
T1 construct: endogenous in cells; host or cells: T47D breast cancer epithelial cells
Test: Immunofluorescence protocol for high content imaging of BCL6 (degradation) in T47D cells, 3 days compound treatment
Format: cell-based
Settings: for Dmax: read-out: Mean Dmax (%)** category; for DC50: read-out: Mean DC50 (nM)* category
In short: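 For degradation, compound series (3-fold, 11 points, top 0.1 or 1 μM final) were added to adherent T47D cultures for 3 days. BCL6 immunostaining used a rabbit antibody at 1:300 and an Alexa-488 secondary, with imaging at 10× magnification.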

[1] = T47D cells, 3 days compound treatment

SMILES | Dmax (T47D) [%] | DC50 [nM] | DC50 [1] [nM] | Dmax [1] [%]
CNC(=O)COc1cc2cc(Nc3nc(N4CCC(OC5CCC6(CC5)CN(c5ccc(F)c7c5CN(C5CCC(=O)NC5=O)C7=O)C6)CC4)ncc3Cl)ccc2n(C(C)C)c1=O (stereo not drawn) [Compound 312, 2-{[6-({5-chloro-2-[4-({2-[2-(2,6-dioxopiperidin-3-yl)-7-fluoro-1-oxo-2,3-dihydro-1H-isoindol-4-yl]-2-azaspiro[3.5]nonan-7-yl}oxy)piperidin-1-yl]pyrimidin-4-yl}amino)-2-oxo-1-(propan-2-yl)-1,2-dihydroquinolin-3-yl]oxy}-N-methylacetamide] | 50 to 70 | < 10 | – | –
CNC(=O)COc1cc2cc(Nc3nc(N4CCC(O[C@H]5CC[C@H](N(C)C6CN(c7ccc8c(c7)C(=O)N(C7CCC(=O)NC7=O)C8=O)C6)CC5)CC4)ncc3Cl)ccc2n(C(C)C)c1=O (stereo partly drawn) [Compound 107, 2-[(6-{[5-chloro-2-(4-{[(1r,4r)-4-({1-[2-(2,6-dioxopiperidin-3-yl)-1,3-dioxo-2,3-dihydro-1H-isoindol-5-yl]azetidin-3-yl}(methyl)amino)cyclohexyl]oxy}piperidin-1-yl)pyrimidin-4-yl]amino}-2-oxo-1-(propan-2-yl)-1,2-dihydroquinolin-3-yl)oxy]-N-methylacetamide] | – | – | < 10 | 50 to 70
CNC(=O)COc1cc2cc(Nc3nc(N4CCC(O[C@H]5C[C@H](N6CCC(c7cc8c(cc7C(F)(F)F)C(=O)N(C7CCC(=O)NC7=O)C8)CC6)C5)CC4)ncc3Cl)ccc2n(C(C)C)c1=O (stereo partly drawn) [Compound 212, 2-({6-[(5-chloro-2-{4-[(1r,3r)-3-{4-[2-(2,6-dioxopiperidin-3-yl)-1-oxo-6-(trifluoromethyl)-2,3-dihydro-1H-isoindol-5-yl]piperidin-1-yl}cyclobutoxy]piperidin-1-yl}pyrimidin-4-yl)amino]-2-oxo-1-(propan-2-yl)-1,2-dihydroquinolin-3-yl}oxy)-N-methylacetamide] | 50 to 70 | < 10 | – | –
CNC(=O)COc1cc2cc(Nc3nc(N4CCC(OC5CCC6(CC5)CN(c5cc(OC)cc7c5CN(C5CCC(=O)NC5=O)C7=O)C6)CC4)ncc3Cl)ccc2n(C(C)C)c1=O (stereo not drawn) [Compound 301, 2-{[6-({5-chloro-2-[4-({2-[2-(2,6-dioxopiperidin-3-yl)-6-methoxy-1-oxo-2,3-dihydro-1H-isoindol-4-yl]-2-azaspiro[3.5]nonan-7-yl}oxy)piperidin-1-yl]pyrimidin-4-yl}amino)-2-oxo-1-(propan-2-yl)-1,2-dihydroquinolin-3-yl]oxy}-N-methylacetamide] | 50 to 70 | < 10 | – | –
CNC(=O)COc1cc2cc(Nc3nc(N4CCC(F)(CN5CCC6(CC5)CN(c5cccc7c5CN(C5CCC(=O)NC5=O)C7=O)C6)CC4)ncc3Cl)ccc2n(C(C)C)c1=O (stereo not drawn) [Compound 52, 2-{[6-({5-chloro-2-[4-({2-[2-(2,6-dioxopiperidin-3-yl)-1-oxo-2,3-dihydro-1H-isoindol-4-yl]-2,7-diazaspiro[3.5]nonan-7-yl}methyl)-4-fluoropiperidin-1-yl]pyrimidin-4-yl}amino)-2-oxo-1-(propan-2-yl)-1,2-dihydroquinolin-3-yl]oxy}-N-methylacetamide] | – | – | < 10 | ≥ 70
CNC(=O)COc1cc2cc(Nc3nc(N4CCN(CC5CCN(c6cc7c(cc6OC)C(=O)N(C6CCC(=O)NC6=O)C7)CC5)CC4)ncc3Cl)ccc2n(C(C)C)c1=O (stereo not drawn) [Compound 21, 2-{[6-({5-chloro-2-[4-({1-[2-(2,6-dioxopiperidin-3-yl)-6-methoxy-1-oxo-2,3-dihydro-1H-isoindol-5-yl]piperidin-4-yl}methyl)piperazin-1-yl]pyrimidin-4-yl}amino)-2-oxo-1-(propan-2-yl)-1,2-dihydroquinolin-3-yl]oxy}-N-methylacetamide] | – | – | < 10 | < 50
CNC(=O)COc1cc2cc(Nc3nc(N4CCC(CN5CCC6(CC5)CN(c5ccc7c(c5OC)CN(C5CCC(=O)NC5=O)C7=O)C6)CC4)ncc3Cl)ccc2n(C(C)C)c1=O (stereo not drawn) [Compound 302, 2-{[6-({5-chloro-2-[4-({2-[2-(2,6-dioxopiperidin-3-yl)-4-methoxy-1-oxo-2,3-dihydro-1H-isoindol-5-yl]-2,7-diazaspiro[3.5]nonan-7-yl}methyl)piperidin-1-yl]pyrimidin-4-yl}amino)-2-oxo-1-(propan-2-yl)-1,2-dihydroquinolin-3-yl]oxy}-N-methylacetamide] | 50 to 70 | < 10 | – | –
CNC(=O)COc1cc2cc(Nc3nc(N4CCC(O[C@H]5C[C@H](N6CC7(CCN7c7ccc8c(c7)C(=O)N(C7CCC(=O)NC7=O)C8)C6)C5)CC4)ncc3Cl)ccc2n(C(C)C)c1=O (stereo partly drawn) [Compound 330, 2-({6-[(5-chloro-2-{4-[(1r,3r)-3-{1-[2-(2,6-dioxopiperidin-3-yl)-3-oxo-2,3-dihydro-1H-isoindol-5-yl]-1,6-diazaspiro [3.3]heptan-6-yl}cyclobutoxy]piperidin-1-yl}pyrimidin-4-yl)amino]-2-oxo-1-(propan-2-yl)-1,2-dihydroquinolin-3-yl}oxy)-N-methylacetamide] | < 50 | 10 to 50 | – | –
CNC(=O)COc1cc2c(F)c(Nc3cc(N4CCC(CN5CCC6(CN(c7ccc8c(c7F)CN(C7CCC(=O)NC7=O)C8=O)C6)C(F)(F)C5)CC4)ncc3Cl)ccc2n(C(C)C)c1=O (stereo not drawn) [Compound 252, 2-{[6-({5-chloro-2-[4-({2-[2-(2,6-dioxopiperidin-3-yl)-4-fluoro-1-oxo-2,3-dihydro-1H-isoindol-5-yl]-5,5-difluoro-2,7-diazaspiro[3.5]nonan-7-yl}methyl)piperidin-1-yl]pyridin-4-yl}amino)-5-fluoro-2-oxo-1-(propan-2-yl)-1,2-dihydroquinolin-3-yl]oxy}-N-methylacetamide] | 50 to 70 | < 10 | – | –
CNC(=O)COc1cc2cc(Nc3nc(N4CCC(O[C@H]5C[C@H](N6CC7(CCN(c8ccc9c(c8)CN(C8CCC(=O)NC8=O)C9=O)CC7)C6)C5)CC4)ncc3Cl)ccc2n(C(C)C)c1=O (stereo partly drawn) [Compound 369, 2-({6-[(5-chloro-2-{4-[(1r,3r)-3-{7-[2-(2,6-dioxopiperidin-3-yl)-1-oxo-2,3-dihydro-1H-isoindol-5-yl]-2,7-diazaspiro[3.5]nonan-2-yl}cyclobutoxy]piperidin-1-yl}pyrimidin-4-yl)amino]-2-oxo-1-(propan-2-yl)-1,2-dihydroquinolin-3-yl}oxy)-N-methylacetamide] | ≥ 70 | < 10 | – | –
CNC(=O)COc1cc2cc(Nc3nc(N4CCC(O[C@H]5C[C@H](N6CCC(c7ccc8c(c7C)C(=O)N(C7CCC(=O)NC7=O)C8=O)CC6)C5)CC4)ncc3Cl)ccc2n(C(C)C)c1=O (stereo partly drawn) [Compound 167, 2-({6-[(5-chloro-2-{4-[(1r,3r)-3-{4-[2-(2,6-dioxopiperidin-3-yl)-4-methyl-1,3-dioxo-2,3-dihydro-1H-isoindol-5-yl]piperidin-1-yl}cyclobutoxy]piperidin-1-yl}pyrimidin-4-yl)amino]-2-oxo-1-(propan-2-yl)-1,2-dihydroquinolin-3-yl}oxy)-N-methylacetamide] | – | – | < 10 | ≥ 70
CNC(=O)COc1cc2cc(Nc3nc(N4CCC(O[C@H]5C[C@H](N6CCC(c7ccc8c(c7F)CN([C@H]7CCC(=O)NC7=O)C8=O)CC6)C5)CC4)ncc3Cl)ccc2n(C(C)C)c1=O [Compound 385, 2-({6-[(5-chloro-2-{4-[(1r,3r)-3-(4-{2-[(3S)-2,6-dioxopiperidin-3-yl]-4-fluoro-1-oxo-2,3-dihydro-1H-isoindol-5-yl}piperidin-1-yl)cyclobutoxy]piperidin-1-yl}pyrimidin-4-yl)amino]-2-oxo-1-(propan-2-yl)-1,2-dihydroquinolin-3-yl}oxy)-N-methylacetamide] | 50 to 70 | < 10 | – | –
CNC(=O)COc1cc2cc(Nc3nc(N4CC5C(CN6CCN(c7cccc8c7C(=O)N(C7CCC(=O)NC7=O)C8=O)CC6)C5C4)ncc3Cl)ccc2n(C(C)C)c1=O (stereo not drawn) [Compound 158, 2-{[6-({5-chloro-2-[6-({4-[2-(2,6-dioxopiperidin-3-yl)-1,3-dioxo-2,3-dihydro-1H-isoindol-4-yl]piperazin-1-yl}methyl)-3-azabicyclo [3.1.0]hexan-3-yl]pyrimidin-4-yl}amino)-2-oxo-1-(propan-2-yl)-1,2-dihydroquinolin-3-yl]oxy}-N-methylacetamide] | – | – | 10 to 50 | < 50
CNC(=O)COc1cc2cc(Nc3nc(N4CCC(F)(CN5CCC6(CC5)CN(c5ccc7c(c5)CN(C5CCC(=O)NC5=O)C7=O)C6)CC4)ncc3Cl)ccc2n(C(C)C)c1=O (stereo not drawn) [Compound 51, 2-{[6-({5-chloro-2-[4-({2-[2-(2,6-dioxopiperidin-3-yl)-1-oxo-2,3-dihydro-1H-isoindol-5-yl]-2,7-diazaspiro[3.5]nonan-7-yl}methyl)-4-fluoropiperidin-1-yl]pyrimidin-4-yl}amino)-2-oxo-1-(propan-2-yl)-1,2-dihydroquinolin-3-yl]oxy}-N-methylacetamide] | – | – | < 10 | 50 to 70
CNC(=O)COc1cc2cc(Nc3nc(N4CCC(O[C@H]5C[C@H](N6CCC(c7cc8c(cn7)C(=O)N(C7CCC(=O)NC7=O)C8)CC6)C5)CC4)ncc3Cl)ccc2n(C(C)C)c1=O (stereo partly drawn) [Compound 219, 2-({6-[(5-chloro-2-{4-[(1r,3r)-3-{4-[2-(2,6-dioxopiperidin-3-yl)-3-oxo-1H,2H,3H-pyrrolo[3,4-c]pyridin-6-yl]piperidin-1-yl}cyclobutoxy]piperidin-1-yl}pyrimidin-4-yl)amino]-2-oxo-1-(propan-2-yl)-1,2-dihydroquinolin-3-yl}oxy)-N-methylacetamide] | 50 to 70 | < 10 | – | –
